{"source": "patent US20130150430A1", "about": "“Methods for Impairing the P53/HDM2 Auto-Regulatory Loop in Multiple Myeloma Development Using mIR-192, mIR-194 and mIR-215” (THE OHIO STATE UNIVERSITY, priority 2011, published 2013)", "system": "p53, MDM2, p21 and Puma in MM1s cells", "assay": "Western blot and densitometry in miRNA-transfected cells treated with MI-219", "type": "cell-based, human", "settings": "for p53 protein in cells not treated with MI-219: forced miRNA expression, untreated MM1s cells, p<0.05; for p53 re-expression with p21 and Puma up-regulation: miRNA-transfected MM1s cells, 24 hr of 2.5 μM MI-219", "protocol": "FIG. 5A: Effects of miR-192, miR-194 and miR-215 on endogenous p53, p21 and MDM2 levels (Western blots) in MM1s cells treated with MI-219 at different concentrations.\nFIG. 5B: Densitometric analysis only for p53 in untreated cells and for p53 and MDM2 protein levels in 2.5, 5 and 10 μM MI-219-treated cells. All experiments were performed in triplicate ±SD.\nSamples were extracted in 15 mM Tris.Cl, pH 7.5/120 mM NaCl/25 mM KCl/2 mM EGTA/0.1 mM DTT/0.5% Triton X-100/[…] leupeptin/0.5 mM PMSF. Total protein (35 μg) from each sample was separated on a 4-20% Tris-HCl-Criterion precast gel Bio-Rad (cat#345-0032, Hercules, Calif.) and transferred to a poly(vinylidene difluoride) filter (Millipore). The filter was blocked in 5% nonfat dry milk, incubated with the specific antibody, washed, and probed with secondary antibody IgG conjugated to horseradish peroxidase (Santa Cruz Biotechnology), and developed with enhanced chemiluminescence (Amersham Pharmacia). Immunoblot analyses were performed using the following antibodies: p53 (sc-53394, Santa Cruz Biotechnology), MDM2 (sc-965, Santa Cruz Biotechnology), phospho-MDM2 (Cat#3521, Cell Signaling), c-MYC (cs-40, Santa Cruz Biotechnology), IGF-1 (sc-9013, Santa Cruz Biotechnology), IGF-1R (Cat#3027, Cell Signaling), total-Akt (Cat#9272, Cell signaling), phospho-Akt (Cat#4060, Cell Signaling), total-S6 (Cat#2217, Cell Signaling), phospho-S6 (Cat#2211, Cell Signaling), p21 (sc-817, Santa Cruz Biotechnology), α-PUMA (Cat#4976, Cell Signaling), GAPDH (Cat#2118, Cell Signaling). Filters were reprobed with enzyme-conjugated antibodies to GFP and β-actin (Santa Cruz Biotechnology).\nMM cells (from MM subjects or from cell lines) non-transfected or transfected with pre- or ASOs miR-192, miR-215, miR-194 and Scr sequence as described above, were treated with MDM2 inhibitor (Nutlin3a and MI-219). Fresh CD138+ primary PCs isolated from new diagnosed MM subjects as previously described were maintained in culture for 24 hr and then treated for 24 hr with 10 μM Nutlin-3a (Cayman Chemical Company) or vehicle (DMSO). For transfected cells at 24 hrs after transfection MM cells were treated with 10 μM Nutlin-3a (Cayman Chemical Company) or DMSO vehicle only at different time points. MMIS cells were also treated with MI-219 solution (10% PEG400/3% Cremophor EL/87% 1×PBS) or only vehicle (10% PEG400/3% Cremophor EL/87% 1×PBS) at different concentration (2.5, 5 and 10 μM) for 24 hr and collected for RNA and protein extractions.", "data": [{"substance": "miR-215: microRNA, p53-activated, down-regulated in MM; transfected as miRNA precursor (Ambion) or lentivector; SEQ ID NO:58 (AUGACCUAUGAAUUGACAGAC; listed as RNA, chemistry not given here; listed as Homo sapiens)", "values": [{"measurement": "p53 protein in cells not treated with MI-219", "result": "p53 became detectable"}, {"measurement": "p53 re-expression with p21 and Puma up-regulation", "result": "Dramatic p53 re-expression"}]}, {"substance": "miR-192: microRNA, p53-activated, down-regulated in MM; transfected as miRNA precursor (Ambion) or lentivector; SEQ ID NO:56 (CUGACCUAUGAAUUGACAGCC; listed as RNA, chemistry not given here; listed as Homo sapiens)", "values": [{"measurement": "p53 protein in cells not treated with MI-219", "result": "p53 became detectable"}, {"measurement": "p53 re-expression with p21 and Puma up-regulation", "result": "Dramatic p53 re-expression"}]}]}
